Measured values taken from patent US6472404B1 (priority 2000, dated 2002).

Columns and labels:
HIV-1 protease = HIV-1 protease (Human immunodeficiency virus type 1 group M subtype B, UniProt P04585); experiment: HIV protease inhibition assay (quenched fluorogenic substrate, fluorescence energy transfer)
HIV-HXB2 = experiment: Antiviral assay: protection of HIV-infected MT4 cells from cell death (MTT); format: cell-based; conditions: Human immunodeficiency virus 1, 120 h; MT4 cells infected with HIV-HXB2; 5 days; MTT viability; rounded to nearest whole number
Experimental: Methods 20: 309-321]. The method is based on the ability of compounds to protect HIV-infected T lymphoblastoid cells (MT4 cells) from cell-death mediated by the infection. The endpoint of the assay was calculated as the concentration of compound at which the cell viability of the culture was preserved by 50% (‘50% inhibitory concentration’, IC50). The cell viability of a culture was determined by the uptake of soluble, yellow 3-[4,5-dimethylthiazol-2-yl]-2,5-diphenyltetrazolium bromide (MTT) and its reduction to a purple insoluble formazan salt. After solubilization, spectrophotometric methods were employed to measure the amount of formazan product.
MT4 cells were prepared to be in logarithmic-phase growth and a total of 2×10^6 cells infected with either the wild type or site directed mutant clones of HIV-HXB2 at a multiplicity of approximately 0.0001 infectious units of virus per cell in a total volume of between 200-500 μl. The cells were incubated with virus for one hour at 37° C. then washed in 0.01 M phosphate buffered saline, pH 7.2, and resuspensed in culture medium for incubation in culture with serial dilutions of test compound. The culture medium used was RPMI 1640 without phenol red, supplemented with penicillin, streptomycin, L-glutamine and 10% fetal calf serum (GM10).
Test compounds were prepared as 2 mM solutions in dimethyl sulphoxide (DMSO). Four replicate, serial 2-fold dilutions in GM10 were then prepared and 50 microliter amounts placed in 96-well plates over a final concentration range of […]. Fifty microliters GM10 and 3.75×10^4 infected cells were then added to each well. Control cultures containing no cells (blank), uninfected cells (100% viability; 4 replicates) and infected cells without compound (total virus-mediated cell death; 4 replicates) were also prepared. The cultures were then incubated at 37° C. in a humidified atmosphere of 5% CO2 in air for 5 days.
A fresh solution of 5 mg/mL MTT was prepared in 0.01 M phosphate buffered saline, pH 7.2 and 20 μL added to each culture. The cultures were further incubated as before for 2 hours. They were then mixed by pipetting up and down, and 170 microliters of Triton X-100 in acidified isopropanol (10% v/v Triton X-100 in 1:250 mixture of concentrated HCl in isopropanol) were added and the cultures were mixed again by pipetting up and down. When the formazan deposit was fully solubilized by further mixing, the absorbance (OD) of the cultures was measured at 540 nm and 690 nm wavelength (690 nm readings were used as blanks for artefacts between wells). The percent protection for each treated culture was then calculated from the equation:
OD drug-treated cultures)−(OD untreated virus control cultures) % Protection=100%
(OD uninfected cultures)−(OD untreated virus control cultures)
The IC50 was then obtained from graph plots of percentage protection versus log10 drug concentration.

melting point [°C] | SMILES | IC50 (HIV-1 protease) [nM] | IC50 (HIV-HXB2) [nM]
126 | CC(C)(C)NC(=O)[C@@H]1C[C@@H]2CCCC[C@@H]2CN1C[C@@H](O)[C@H](Cc1ccccc1)NC(=O)[C@@H](Nc1nc(CO)cs1)C(C)(C)S(C)(=O)=O |  | 
228 to 230 | CC(C)(C)NC(=O)[C@@H]1C[C@@H]2CCCC[C@@H]2CN1C[C@@H](O)[C@H](Cc1ccccc1)NC(=O)[C@@H](n1cc[nH]c1=O)C(C)(C)S(C)(=O)=O |  | 
197 to 199 | CC(C)(C)NC(=O)[C@@H]1C[C@@H]2CCCC[C@@H]2CN1C[C@@H](O)[C@H](Cc1ccccc1)NC(=O)[C@@H](NC(=O)COc1cccc(F)c1)C(C)(C)S(C)(=O)=O |  | 
135 to 160 | CC(C)(C)NC(=O)[C@@H]1C[C@@H]2CCCC[C@@H]2CN1C[C@@H](O)[C@H](Cc1ccccc1)NC(=O)[C@@H](NS(C)(=O)=O)C(C)(C)S(C)(=O)=O |  | 
 | CC(C)(C)NC(=O)[C@@H]1C[C@@H]2CCCC[C@@H]2CN1C[C@@H](O)[C@H](Cc1ccccc1)NC(=O)[C@@H](NC(=O)COc1cccnc1)C(C)(C)S(C)(=O)=O [Example 3, N-tert-butyl-1,2,3,4,4a(S),5,6,7,8a(S)-decahydro-2-[2(R)-hydroxy-3(S)-[[3-(methanesulfonyl)-N-[2-(3-pyridyloxy)acetyl]-L-valyl]amino]-4-phenylbutyl]-3(S)-isoquinolinecarboxamide] | 0.6 | 17
 | CC(C)(C)NC(=O)[C@@H]1C[C@@H]2CCCC[C@@H]2CN1C[C@@H](O)[C@H](Cc1ccccc1)NC(=O)[C@@H](NC(=O)c1cccnc1)C(C)(C)S(C)(=O)=O [Example 7, N-tert-butyl-1,2,3,4,4a(S),5,6,7,8,8a(S)-decahydro-2-[2(R)-hydroxy-3(S)-[[3-(methanesulfonyl)-N-[(3-pyridyl)carbonyl]-L-valyl]amino]-4-phenylbutyl]-3(S)-isoquinolinecarboxamide] | 2.3 | 21
 | CC(C)(C)NC(=O)[C@@H]1C[C@@H]2CCCC[C@@H]2CN1C[C@@H](O)[C@H](Cc1ccccc1)NC(=O)[C@@H](NC(=O)c1ccc(Cl)nc1)C(C)(C)S(C)(=O)=O [Example 16, N-tert-Butyl-2-[3-(S)-[[N-[(6-chloro-3-pyridyl)carbonyl]-3-(methanesulfonyl)-L-valyl]amino]-2(R)-hydroxy-4-phenylbutyl]-1,2,3,4,4a(S),5,6,7,8,8a(S)-decahydro-3(S)-isoquinolinecarboxamide] | 1 | 12
 | CC(C)(C)NC(=O)[C@@H]1C[C@@H]2CCCC[C@@H]2CN1C[C@@H](O)[C@H](Cc1ccccc1)NC(=O)[C@@H](NC(=O)c1ccoc1)C(C)(C)S(C)(=O)=O [Example 28, N-tert-Butyl-2-[3-(S)-[[N-(3-furoyl)-3-(methanesulfonyl)-L-valyl]amino]-2(R)-hydroxy-4-phenylbutyl]-1,2,3,4,4a(S),5,6,7,8,8a(S)-decahydro-3(S)-isoquinolinecarboxamide] | 1 | 21
 | CC(C)(C)NC(=O)[C@@H]1C[C@@H]2CCCC[C@@H]2CN1C[C@@H](O)[C@H](Cc1ccccc1)NC(=O)[C@@H](NC(=O)c1cccc(F)c1)C(C)(C)S(C)(=O)=O [Example 40, N-tert-Butyl-2-[3-(S)-[[N-(3-fluorobenzoyl)-3-(methanesulfonyl)-L-valyl]amino]-2(R)-hydroxy-4-phenylbutyl]-1,2,3,4,4a(S),5,6,7,8,8a(S)-decahydro-3(S)-isoquinolinecarboxamide] | 1.4 | 19
 | CC(C)NCC(=O)N[C@H](C(=O)N[C@@H](Cc1ccccc1)[C@H](O)CN1C[C@H]2CCCC[C@H]2C[C@H]1C(=O)NC(C)(C)C)C(C)(C)S(C)(=O)=O [Example 92, N-tert-Butyl-1,2,3,4,4a(S),5,6,7,8,8a(S)-decahydro-2-[2(R)-hydroxy-3(S)-[[N-[2-(isopropylamino)acetyl]-3-(methanesulfonyl)-L-valyl]amino]-4-phenylbutyl]-3(S)-isoquinolinecarboxamide] | 4 | 33
 | CC(C)(C)NC(=O)[C@@H]1C[C@@H]2CCCC[C@@H]2CN1C[C@@H](O)[C@H](Cc1ccccc1)NC(=O)[C@@H](NC(=O)CNc1ccccc1)C(C)(C)S(C)(=O)=O [Example 93, N-tert-Butyl-1,2,3,4,4a(S),5,6,7,8,8a(S)-decahydro-2-[2(R)-hydroxy-3(S)-[3-(methanesulfonyl)-N-(N-phenylglycyl)-L-valyl]amino]-4-phenylbutyl-3(S)-isoquinolinecarboxamide] | 0.5 | 8
 | CC(C)(C)NC(=O)[C@@H]1C[C@@H]2CCCC[C@@H]2CN1C[C@@H](O)[C@H](Cc1ccccc1)NC(=O)[C@@H](NC(=O)N1CCOCC1)C(C)(C)S(C)(=O)=O [Example 106, N-tert-Butyl-1,2,3,4,4a(S),5,6,7,8,8a(S)-decahydro-2-[2(R)-hydroxy-3(S)-[[3-(methanesulfonyl)-N-(morpholinocarbonyl)-L-valyl]amino]-4 phenylbutyl]-3(S)-isoquinolinecarboxamide] | 10.7 | 60
 | CC(C)(C)NC(=O)[C@@H]1C[C@@H]2CCCC[C@@H]2CN1C[C@@H](O)[C@H](Cc1ccccc1)NC(=O)[C@@H](NCc1ccccc1)C(C)(C)S(C)(=O)=O [Example 112, 2-[3(S)-[[N-Benzyl-3-(methanesulfonyl)-L-valyl]amino]-2(R)-hydroxy-4-phenylbutyl]-N-tert-butyl-1,2,3,4,4a(S),5,6,7,8,8a(S)-decahydro-3(S)-isoquinolinecarboxamide] | 7.5 | 94
 | Cc1csc(N[C@H](C(=O)N[C@@H](Cc2ccccc2)[C@H](O)CN2C[C@H]3CCCC[C@H]3C[C@H]2C(=O)NC(C)(C)C)C(C)(C)S(C)(=O)=O)n1 [Example 138, N-tert-Butyl-1,2,3,4,4a(S),5,6,7,8,8a(S)-decahydro-2-[2(R)-hydroxy-3(S)-[[3-(methanesulfonyl)-N-(4-methyl-2-thiazolyl)-L-valyl]amino]-4-phenylbutyl]-3(S)-isoquinolinecarboxamide] | 7.8 | 65
 | CC(C)(C)NC(=O)[C@@H]1C[C@@H]2CCCC[C@@H]2CN1C[C@@H](O)[C@H](Cc1ccccc1)NC(=O)[C@@H](NC(=O)COc1ccccn1)C(C)(C)S(C)(=O)=O [Example 152] | 1.2 | 17
 | CC(C)(C)NC(=O)[C@@H]1C[C@@H]2CCCC[C@@H]2CN1C[C@@H](O)[C@H](Cc1ccccc1)NC(=O)[C@@H](NC(=O)COc1cccnn1)C(C)(C)S(C)(=O)=O [Example 154] | 0.5 | 16
 | CC(C)(C)NC(=O)[C@@H]1C[C@@H]2CCCC[C@@H]2CN1C[C@@H](O)[C@H](Cc1ccccc1)NC(=O)[C@@H](NC(=O)NCc1ccccc1)C(C)(C)S(C)(=O)=O [Example 168, 2-[3(S)-[[N-(Benzylcarbamoyl)-3-(methanesulfonyl)-L-valyl]amino]-2(R)-hydroxy-4-phenylbutyl]-N-tert-butyl-1,2,3,4,4a(S),5,6,7,8,8a(S)-decahydro-3(S)-isoquinolinecarboxamide] | 0.5 | 16
 | CN(Cc1cccnc1)C(=O)N[C@H](C(=O)N[C@@H](Cc1ccccc1)[C@H](O)CN1C[C@H]2CCCC[C@H]2C[C@H]1C(=O)NC(C)(C)C)C(C)(C)S(C)(=O)=O [Example 170, N-tert-Butyl-1,2,3,4,4a(S),5,6,7,8,8a(S)-decahydro-2-[2(R)-hydroxy-3(S)-[[3-(methanesulfonyl)-N-[N-methyl-N-[(3-pyridyl)methyl]carbamoyl]-L-valyl]amino]-4-phenylbutyl]-3(S)-isoquinolinecarboxamide] | 1 | 13

SMILES | melting point [°C] | IC50 (HIV-1 protease) [nM] | IC50 (HIV-HXB2) [nM]
COC(=O)N[C@H](C(=O)N[C@@H](Cc1ccccc1)[C@H](O)CN1C[C@H]2CCCC[C@H]2C[C@H]1C(=O)NC(C)(C)C)C(C)(C)S(C)(=O)=O [Example 4, N-tert-Butyl-1,2,3,4,4a(S),5,6,7,8,8a(S)-decahydro-2-[2(R)-hydroxy-3(S)-[[3-(methanesulfonyl)-N-(methoxycarbonyl)-L-valyl]amino]-4-phenylbutyl]-3(S)-isoquinolinecarboxamide] | 190 to 194 | 2.8 | 14
